The source of these data is article PMC12505902, “Inhibitors of trehalose-6-phosphate synthase activity in fungal pathogens compromise thermal tolerance pathways” (mBio, 2025).

One experiment has as its target 6xHis-CnTps1 (Cryptococcus neoformans var. grubii, UniProt J9VJZ1). As to the kind of experiment: Glo-melt thermal shift assay. Type of experiment: binding. The settings on record: 1 µM protein, 2 mM 4456dh (Fig 2 legend), incubated overnight at 4°C. As to the method:
(§1) Fig 2 4456dh binds Tps1 and inhibits Tps1 activity. (A) Structure of 4456dh. (B and C) Glo-melt thermal shift assays reveal 4456dh destabilizes 6xHis-CaTps1 (B) and 6xHis-CnTps1 (C). The first derivative of the raw data was used to determine the melting temperature of 1 µM 6xHis-CaTps1 (B) and 1 µM 6xHis-CnTps1 (C) treated without (black) or with 2 mM 4456dh (red). […] The resulting dose-response curves were fitted to a one-site binding model to extract Kd values; the SD was calculated using the Kd values from each independent experiment (n = 3). (F) Tps1 enzyme activity assay with 5 µM 6xHis-CaTps1 (F) and 6xHis-CnTps1 (G) ±1 mM 4456dh. Error bars represent SE. Comparison to control, untreated 6xHis-CaTps1, was performed using Student’s t-test; **P < 0.01 and ***P < 0.001.
(§2) Thermal shift assays were completed to determine if 4456dh binds Tps1. […]
(§3) 82 determined by SDS-PAGE analysis, were pooled and concentrated to 1 mg/mL for downstream […]
(§4) 93 The data were acquired with MO.Control 1.5.3 (NanoTemper Technologies GmbH). Recorded
(§5) 94 data were analyzed with MO.Affinity Analysis 2.2.7 (NanoTemper Technologies GmbH). […]
(§6) 100 2X Glo-melt dye. Thermal denaturation was measured using an RT-PCR thermocycler (BioRad) […]
(§7) 102 determined by identifying the inflection point of the derivative data. […]
(§8) 104 The catalytic activity of C. albicans Tps1 and C. neoformans Tps1 was measured via a continuous […]

Another experiment concerns the target T1, 6xHis-CaTps1 (Candida albicans, UniProt Q92410).
T1 construct: Briefly, the full-length; thrombin cleavage site (pET-28a linker) (N); made in house; host or cells: E. coli BL21(DE3)pLysS
T1 sequence (Q92410 1-478): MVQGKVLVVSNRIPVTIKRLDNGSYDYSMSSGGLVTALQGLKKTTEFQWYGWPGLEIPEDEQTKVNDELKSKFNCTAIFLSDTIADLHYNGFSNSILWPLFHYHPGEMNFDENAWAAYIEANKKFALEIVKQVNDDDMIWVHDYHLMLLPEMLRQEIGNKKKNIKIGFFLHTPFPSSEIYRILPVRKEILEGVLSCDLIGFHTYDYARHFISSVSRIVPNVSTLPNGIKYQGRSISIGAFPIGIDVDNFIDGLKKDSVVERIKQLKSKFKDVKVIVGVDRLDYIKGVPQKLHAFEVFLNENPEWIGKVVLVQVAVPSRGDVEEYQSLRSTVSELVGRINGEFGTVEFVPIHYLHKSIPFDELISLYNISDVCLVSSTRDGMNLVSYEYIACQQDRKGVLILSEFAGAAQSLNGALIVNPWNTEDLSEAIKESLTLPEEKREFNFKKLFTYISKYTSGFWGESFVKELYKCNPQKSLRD
Briefly: Glo-melt thermal shift assay. It counts as binding. As to conditions: 1 µM protein, 2 mM 4456dh (Fig 2 legend), incubated overnight at 4°C. As to the method:
as §1, §2, §3, §4, §5, §6, §7, §8

Experiment [1] relates to C. albicans WT strain SC5314. As to the kind of experiment: C. albicans filamentation assay (serum-induced). The settings on record: YPD plus 10% fetal bovine serum, 37°C, 2 hours; sub-MIC concentration (5 µM as printed). It counts as cell-based.

6xHis-CnTps1, sequence (J9VJZ1 entry or part of it): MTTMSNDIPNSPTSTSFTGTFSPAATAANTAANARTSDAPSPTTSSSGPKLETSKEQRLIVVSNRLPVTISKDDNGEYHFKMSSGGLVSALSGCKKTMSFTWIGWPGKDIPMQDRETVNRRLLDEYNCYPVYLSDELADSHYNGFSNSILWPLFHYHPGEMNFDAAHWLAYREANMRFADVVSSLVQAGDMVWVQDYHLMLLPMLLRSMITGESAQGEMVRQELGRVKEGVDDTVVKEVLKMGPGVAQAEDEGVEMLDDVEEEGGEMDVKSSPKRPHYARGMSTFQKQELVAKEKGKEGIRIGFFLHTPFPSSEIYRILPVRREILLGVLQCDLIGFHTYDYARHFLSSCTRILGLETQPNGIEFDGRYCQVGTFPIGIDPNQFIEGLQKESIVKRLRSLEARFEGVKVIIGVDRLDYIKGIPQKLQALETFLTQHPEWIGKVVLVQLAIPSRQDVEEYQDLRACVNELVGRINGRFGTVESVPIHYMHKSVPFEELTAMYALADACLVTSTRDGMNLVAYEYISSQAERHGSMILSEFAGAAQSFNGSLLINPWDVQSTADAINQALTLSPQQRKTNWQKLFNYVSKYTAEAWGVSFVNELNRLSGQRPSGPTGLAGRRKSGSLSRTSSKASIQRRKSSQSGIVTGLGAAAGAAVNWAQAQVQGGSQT

Consider `Cn1cc(-c2csc(NC(=O)Cc3ccccn3)n2)cn1` [Compound 4456dh], for which the “effect on melting temperature” value at 6xHis-CnTps1 and at 6xHis-CaTps1 was “decreased the melting temperature” each time. Besides, in experiment [1], the filamentation entry was “complete inhibition of filamentation”.
